Experimental data: US11045487B2, “Pharmaceutical preparation treating bone lesions caused by malignant neoplasms” (priority 2016, dated 2021)

Key:
[1] = Thermal behaviour of solutions for lyophilization (DSC); type: physicochemical
From the text: Differential Scanning calorimetry (DSC) was used to identify the lowest possible transient temperature in the solution throughout the entire lyophilization process, including freezing and dehydration. For the solutions of most pharmaceutical products, this parameter is represented by the glass transition temperature or “Tgt”. All components and their amounts in the solution contribute to the final value of Tgt. This temperature is usually several degrees below the temperature at which the sintered material can crumble during the lyophilization process (collapse temperature, Tc). Without determining the collapse temperature by such methods as cryomicroscopy, the glass transition temperature can be used to select the primary drying temperature. Until the primary drying is completed, the initial drying temperature should be set in such a manner that there are no vials for which the glass transition temperature has been exceeded (or Tc, if known). Otherwise, the structure of the sintered material may get broken. On the one hand, the lyophilization temperature should be close to Tgt, so that the process proceeds efficiently, and on the other hand, it cannot exceed Tgt due to process requirements and qualitative product parameters. Thus, the values of collapse and glass transition temperature are important parameters for calculating safe upper temperature limits, which can be used for lyophilization. Based on the proposed filling of the vials with the drug (100 mg of active ingredient per vial), potential solutions for filling were prepared. The excipients included sterile water for injection (SWFI), 50 mM succinate and tartrate buffers at pH 5, MgCl2, sulfobutylether β-cyclodextrin (SBEβCD), mannitol and dextran 40. In addition, for solutions containing mannitol, a study of the effect of the annealing stage (the lyophilization process stage when the samples are kept at a certain temperature below the freezing point for a certain period of time) on the improvement the crystallinity of the finished product was performed. […]

[2] = system: bone lesions caused by malignant neoplasms; test: Phase I open non-randomized multicenter clinical study; type: in vivo; details: patients; intravenous infusion daily for 5 days, break of 23 days; on free acid basis
Description: To assess the efficacy and safety of the novel medicinal drug, clinical studies of phase I were conducted according to “Open non-randomized multicenter clinical study” protocol.
All patients received a single dosing with the study drug in a dose corresponding to the dose level of the cohort with the subsequent weekly follow-up period and at least 2 cycles of multiple dosing. The cycle consisted of daily administration (o.d.) of the drug for 5 days, followed by a break of 23 days. […] According to protocol criteria, the maximum tolerated dose is considered a dose 1 level lower than DLT (5 mg/kg).

[3] = Succinate buffer, MBC-11 25 mg/mL, MgCl2, 86.5 mmol/L
[4] = Tartrate buffer, MBC-11 25 mg/mL, MgCl2, 86.5 mmol/L

CC(O)(P(=O)(O)O)P(=O)(O)OP(=O)(O)OC[C@H]1O[C@@H](n2ccc(N)nc2=O)[C@@H](O)[C@@H]1O.[Na].[Na].[Na] (stereo partly drawn) [MBC-11, Trisodium salt of 1-((((((2R,3S,4S,5R)-5-(4-amino-2-oxopyrimidine-1(2H)-yl)-3,4-dihydroxytetrahydrofuran-2-yl)methoxy))(hydroxy)phosphoryloxy)(hydroxy)phosphoryl)-1-hydroxyethylphosphonic acid]
Thermal effect (event): endotherm ([1]; SWFI, MBC-11 25 mg/mL, MgCl2, 43.25 mmol/L): −21 °C (endotherm)
Thermal effect (event): possible crystallization ([1]; SWFI, MBC-11 25 mg/mL, MgCl2, 43.25 mmol/L + Mannitol, 25 mg/mL): −27 °C
Thermal effect (event): specific endothermicity (none crystallization after temperature processing) ([1]; SWFI, MBC-11 25 mg/mL, MgCl2, 43.25 mmol/L + Mannitol, 25 mg/mL, Annealing at −20° C.): −22 °C
Thermal effect (event): weak endothermicity (none crystallization after annealing) ([1]; SWFI, MBC-11 25 mg/mL, MgCl2, 43.25 mmol/L + Mannitol, 25 mg/mL, Annealing at −24° C.): −22 °C
Thermal effect (event): endothermicity ([1]; SWFI, MBC-11 25 mg/mL, MgCl2, 86.5 mmol/L): −26 °C (endothermicity)
Thermal effect (event) ([1]; SWFI, MBC-11 25 mg/mL, MgCl2, 86.5 mmol/L + Mannitol, 25 mg/mL): Tgt/endothermicity before
Thermal effect (event): endothermicity ([1]; SWFI, MBC-11 50 mg/mL, MgCl2, 86.5 mmol/L): −21 °C (endothermicity)
Thermal effect (event) ([1]; SWFI, MBC-11 50 mg/mL, MgCl2, 86.5 mmol/L + Mannitol, 25 mg/mL): Tgt/endothermicity before
Thermal effect (event): endothermicity ([1]; SWFI, MBC-11 50 mg/mL, MgCl2, 173 mmol/L): −26 °C (endothermicity)
Thermal effect (event) ([1]; SWFI, MBC-11 50 mg/mL, MgCl2, 173 mmol/L + Mannitol, 25 mg/mL): Tgt/endothermicity before
Thermal effect (event): endothermicity ([1]; SWFI, MBC-11 100 mg/mL, MgCl2, 173 mmol/L): −22 °C (endothermicity)
Thermal effect (event): endothermicity ([1]; SWFI, MBC-11 100 mg/mL, MgCl2, 350 mmol/L): −26 °C (endothermicity)
Thermal effect (event): crystallization [1, 3]: −34 °C (crystallization)
Thermal effect (event): endothermicity [1, 3]: −26 °C (endothermicity)
Thermal effect (event) ([1]; Succinate buffer, MBC-11 25 mg/mL, MgCl2, 86.5 mmol/L + Mannitol, 25 mg/mL): Tgt/endothermicity before
Thermal effect (event): crystallization [1, 4]: −30 °C (crystallization)
Thermal effect (event): endothermicity [1, 4]: −22 °C (endothermicity)
maximum tolerated daily dose [2]: 5 mg/kg
